ChEMBL document CHEMBL1128189, “alpha-Hydroxy phosphinyl-based inhibitors of human renin” (J Med Chem, 1995)

Biological target: T1, Renin (Homo sapiens, UniProt P00797)
T1 sequence (P00797 whole entry): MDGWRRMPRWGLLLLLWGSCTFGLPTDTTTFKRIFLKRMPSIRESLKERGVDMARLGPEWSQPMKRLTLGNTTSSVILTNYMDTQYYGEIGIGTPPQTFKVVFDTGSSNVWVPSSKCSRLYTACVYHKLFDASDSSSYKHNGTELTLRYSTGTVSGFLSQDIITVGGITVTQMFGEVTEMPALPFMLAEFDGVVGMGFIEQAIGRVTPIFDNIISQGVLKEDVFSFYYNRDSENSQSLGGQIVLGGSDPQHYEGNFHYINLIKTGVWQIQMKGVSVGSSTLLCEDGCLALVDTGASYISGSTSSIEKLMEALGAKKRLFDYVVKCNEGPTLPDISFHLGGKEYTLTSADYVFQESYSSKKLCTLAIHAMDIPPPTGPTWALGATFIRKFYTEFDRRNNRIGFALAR
Assay: Evaluation of inhibitory activity against human renin.

Point of comparison: `CCOP(=O)(OCC)[C@@H](O)[C@H](CC1CCCCC1)NC(=O)[C@H](CC(C)C)NC(=O)[C@H](Cc1ccccc1)NC(=O)OC(C)(C)C`, IC50 41000 nM. Against it:
- COP(=O)(OC)[C@H](O)[C@H](CC1CCCCC1)NC(=O)[C@H](CC(C)C)NC(=O)[C@H](Cc1ccccc1)NC(=O)OC(C)(C)C — 4100-fold lower, 10 nM
- CCOP(=O)(OCC)[C@H](O)[C@H](CC1CCCCC1)NC(=O)[C@H](CC(C)C)NC(=O)[C@H](Cc1ccccc1)NC(=O)C1CCCC1 — 1100-fold lower, 38 nM
- CCOP(=O)(OCC)[C@H](O)[C@H](CC1CCCCC1)NC(=O)[C@H](CC(C)C)NC(=O)[C@H](Cc1ccccc1)NC(=O)OC(C)(C)C — 1400-fold lower, 29 nM

Biological target: T1, Renin
Assay: Evaluation of inhibitory activity against human renin

Point of comparison: `COP(=O)(OC)[C@H](O)[C@H](CC1CCCCC1)NC(=O)[C@H](Cc1cnc[nH]1)NC(=O)[C@H](Cc1ccccc1)NC(=O)N1CCOCC1`, IC50 41 nM. Against it:
- COP(=O)(OC)[C@H](O)[C@H](CC1CCCCC1)NC(=O)[C@H](CC(C)C)NC(=O)[C@H](Cc1ccccc1)NC(=O)CCCCCN — within 1.5-fold, 31 nM
- CCOC(=O)[C@H](O)[C@H](CC1CCCCC1)NC(=O)[C@H](CC(C)C)NC(=O)[C@H](Cc1ccccc1)NC(=O)OC(C)(C)C — 8.2-fold lower, 5 nM
- COP(=O)(OC)[C@H](O)[C@H](CC1CCCCC1)NC(=O)[C@H](CC(C)C)NC(=O)[C@H](Cc1ccccc1)NC(=O)N1CCOCC1 — 4.8-fold lower, 8.5 nM
- COP(=O)(O)[C@H](O)[C@H](CC1CCCCC1)NC(=O)[C@H](CC(C)C)NC(=O)[C@H](Cc1ccccc1)NC(=O)C1CCCC1 — 660-fold higher, 27000 nM
- COP(=O)(OC)[C@H](O)[C@H](CC1CCCCC1)NC(=O)[C@H](CC(C)C)NC(=O)[C@H](Cc1ccccc1)NC(=O)C1CCCC1 — 2.6-fold lower, 16 nM
- COP(=O)(OC)[C@H](O)[C@H](CC1CCCCC1)NC(=O)[C@H](Cc1cnc[nH]1)NC(=O)[C@H](Cc1ccccc1)NC(=O)C1CCCC1 — 5.4-fold higher, 220 nM

Biological target: T1, Renin
Assay: Evaluation of inhibitory activity against human renin. value in parentheses indicate no. of determinations

Point of comparison: `CCP(=O)(CC)[C@H](O)[C@H](CC1CCCCC1)NC(=O)[C@H](CC(C)C)NC(=O)[C@H](Cc1ccccc1)NC(=O)C1CCCC1`, IC50 400 nM. Against it:
- CCP(=O)(CC)[C@@H](O)[C@H](CC1CCCCC1)NC(=O)[C@H](CC(C)C)NC(=O)[C@H](Cc1ccccc1)NC(=O)C1CCCC1 — 13-fold higher, 5200 nM
- CCP(=O)(OC)C(O)[C@H](CC1CCCCC1)NC(=O)[C@H](CC(C)C)NC(=O)[C@H](Cc1ccccc1)NC(=O)C1CCCC1 (stereo in doubt; 28) — 1.9-fold lower, 210 nM
- CCP(=O)(OC)C(O)[C@H](CC1CCCCC1)NC(=O)[C@H](CC(C)C)NC(=O)[C@H](Cc1ccccc1)NC(=O)C1CCCC1 (stereo in doubt; 29) — 9.1-fold lower, 44 nM
- CCP(=O)(OC)C(O)[C@H](CC1CCCCC1)NC(=O)[C@H](CC(C)C)NC(=O)[C@H](Cc1ccccc1)NC(=O)C1CCCC1 (stereo in doubt; 30) — 6-fold higher, 2400 nM
